# Results taken from patent publication US8580842B2, “Heteroaryl-substituted 1,3-dihydroindol-2-one derivatives and medicaments containing them” (Abbott GmbH & Co. KG, priority 2003, dated 2013).
# pKi: −log10 of the molar value.
# Key:
# human V1b receptors = molecular target: T1, human V1b receptors (Homo sapiens, UniProt P47901); test: Vasopressin V1b receptor binding assay; details: membranes from CHO-K1 cells expressing human V1b receptors, displacement of 1.5 nM 3H-AVP; read-out: Binding affinity for the vasopressin V1b receptor
# T1 construct: expressed in transfected cells; host or cells: CHO-K1 (membrane preparation V1b-3H2)
# T1 sequence (P47901 1-424): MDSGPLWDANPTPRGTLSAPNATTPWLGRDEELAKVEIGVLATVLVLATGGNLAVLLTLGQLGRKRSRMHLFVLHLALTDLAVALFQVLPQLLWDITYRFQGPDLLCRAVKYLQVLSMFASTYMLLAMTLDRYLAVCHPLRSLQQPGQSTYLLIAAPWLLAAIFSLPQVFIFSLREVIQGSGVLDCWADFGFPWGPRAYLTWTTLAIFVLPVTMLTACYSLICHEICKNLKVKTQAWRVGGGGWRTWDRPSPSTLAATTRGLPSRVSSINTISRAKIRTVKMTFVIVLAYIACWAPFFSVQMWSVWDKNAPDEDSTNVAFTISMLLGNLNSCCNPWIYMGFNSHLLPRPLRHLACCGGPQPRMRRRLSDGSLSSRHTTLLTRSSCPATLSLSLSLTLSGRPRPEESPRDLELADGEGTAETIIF
# Summary of the method: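 Membranes from CHO-K1 cells stably expressing human V1b incubated with 1.5 nM ³H-AVP and test compound in 50 mM Tris, 10 mM MgCl2, 0.1% BSA, pH 7.4, 60 min at room temperature; non-specific binding with 10^−6 M AVP. Filtration and scintillation counting in triplicate; binding parameters by non-linear regression.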
# Male Sprague Dawley rats = test: Rat forced swim test; format: in vivo; details: ip; rat forced swim model, intraperitoneal route, three times before re-testing; read-out: ED50 (decrease of immobility time)
# Description: Antidepressant Effects of Compounds of this Invention in the Rat Forced Swim Model
# The potential antidepressant effects of some examples of this invention were examined in the rat forced swim test. When rats are forced to swim in a cylinder from which no escape is possible they readily adopt a characteristic immobile posture and make no further attempts to escape except for small movements needed to keep floating. The immobility is considered to reflect a ‘depressive mood’ (Porsolt R D, LePichon M, Jalfre M (1977). Depression: a new animal model sensitive to antidepressant treatment. Nature 266, 730-732.), in which animals cease to struggle to escape the aversive situation. The immobility induced by the procedure is influenced by a wide variety of antidepressants (Porsolt R D, Lenegre A, McArthur R A (1991). Pharmacological models of depression. In: Animal models in Psychopharmacology. B. Olivier, J. Mos, J. L. Slangen (eds) Birkhauser Verlag, Basel, pp. 137-159.) and has a good predictive validity in that it detects antidepressants with different mechanisms of action. Administration of antidepressants such as fluoxetine increases the time an animal struggles (decreases the immobility time) when forced to swim in a confined space. Lack of struggling is thought to represent a state of despair.
# Procedure: Male Sprague Dawley rats (Janvier) weighing 160-200 gram (n=6) were placed individually into a glass water tank (40 cm×21.5 cm) filled with tap water (25° C.) up to 18 cm. This pre-test lasted for 15 min. Twenty-four hours later, animals were re-tested for 5 min in the same water tank while the total immobility time, swimming time and climbing time were recorded. Rats were considered immobile when they made no further attempts to escape, except for movements necessary to keep their heads above water (Porsolt R D, Anton G, Blavet N & Jalfre M. (1978). Behavioural despair in rats: a new model sensitive to antidepressant treatments. European Journal of Pharmacology 47, 379-391). The absence of hind limb movements was recorded as immobility using a stopwatch by a single observer. […]
pKi (human V1b receptors),Molecule,ED50 (Male Sprague Dawley rats)
> 7.30,"COc1ccc(S(=O)(=O)N2C(=O)C(c3cccnc3OC)(N3C[C@H](O)C[C@H]3C(=O)N(C)C)c3cc(Cl)ccc32)c(OC)c1 (single isomer, unassigned) [Example 5]",< 30 mg/kg
> 7.30,"COc1ccccc1C1(N2C[C@H](O)C[C@H]2C(=O)N(C)C)C(=O)N(S(=O)(=O)c2cccs2)c2ccc(Cl)cc21 (single isomer, unassigned) [Example 29]",< 30 mg/kg
> 7.30,COc1ccc(S(=O)(=O)N2C(=O)C(c3cccnc3OC)(N(C)[C@@H](C)C(=O)N(C)C)c3cc(Cl)ccc32)c(OC)c1 (some centres unmarked) [Example 220],
> 7.30,"COc1ccc(S(=O)(=O)N2C(=O)C(c3ccc[nH]c3=O)(N3C[C@H](O)C[C@H]3C(=O)N(C)C)c3cc(Cl)ccc32)c(OC)c1 (stereo partly drawn) [Example 224, (2S,4R)-1-[5-Chloro-1-(2,4-dimethoxy-benzenesulfonyl)-2-oxo-3-(2-oxo-1,2-dihydro-pyridin-3-yl)-2,3-dihydro-1H-indol-3-yl]-4-hydroxy-pyrrolidine-2-carlboxylic acid dimethylamide]",
,"COc1ccc(S(=O)(=O)N2C(=O)[C@@](c3ccccc3OC)(N3C[C@H](O)C[C@H]3C(=O)N(C)C)c3cc(Cl)ccc32)c(OC)c1 [SSR149415, reference compound]",> 30 mg/kg

Molecule,pKi (human V1b receptors),ED50 (Male Sprague Dawley rats)
"(2S,4R)-1-[5-Chloro-3-(2,4-dimethoxy-pyrimidin-5-yl)-1-(5-methyl-pyridine-2-sulfonyl)-2-oxo-2,3-dihydro-1H-indol-3-yl]-4-hydroxy-pyrrolidine-2-carboxylic acid dimethylamide [Example 289]",> 7.30,
